Experimental data: patent US7754880B2, “Uracils having a herbicidal activity” (Isagro Ricerca S.r.l., priority 2002, dated 2010)

First: Cc1cc(COc2cc(-n3c(=O)cc(C(F)(F)F)n(C)c3=O)c(Cl)cc2Cl)on1 [Compound No 108, 3-{2,4-dichloro-5-[(3-methylisoxazol-5-yl)methoxy]phenyl}-1-methyl-6-(trifluoromethyl)-2,4(1H,3H)-pyrimidinedione]
Second: Cc1nc(COc2cc(-n3c(=O)cc(C(F)(F)F)n(C)c3=O)c(Cl)cc2Cl)no1 [Compound No 112, 3-{2,4-dichloro-5-[(5-methyl-1,2,4-oxadiazol-3-yl)methoxy]phenyl}-1-methyl-6-(trifluoromethyl)-2,4(1H,3H)-pyrimidinedione]
The melting point of the first is higher: 185 °C for the first, 167 °C for the second.

First: Cn1c(C(F)(F)F)cc(=O)n(-c2ccc(Cl)c(-c3nc4ccccc4s3)c2)c1=O [Compound No 113, 3-[3-(1,3-benzothiazol-2-yl)-4-chlorophenyl]-1-methyl-6-(trifluoromethyl)-2,4(1H,3H)-pyrimidinedione]
Second: Cn1c(C(F)(F)F)cc(=O)n(-c2cc(-c3nc4ccccc4s3)c(Cl)cc2F)c1=O [Compound No 119, 3-[5-(1,3-benzothiazol-2-yl)-4-chloro-2-fluorophenyl]-1-methyl-6-(trifluoromethyl)-2,4(1H,3H)-pyrimidinedione]
The melting point of the first is lower: 189 °C for the first, 211 °C for the second.

Going from Cn1c(C(F)(F)F)cc(=O)n(-c2ccc(Cl)c(-c3nc4ccccc4o3)c2)c1=O [Compound No 114, 3-[3-(1,3-benzoxazol-2-yl)-4-chlorophenyl]-1-methyl-6-(trifluoromethyl)-2,4(1H,3H)-pyrimidinedione] to Cn1c(C(F)(F)F)cc(=O)n(-c2cc(-c3nc4ccccc4o3)c(Cl)cc2F)c1=O [Compound No 122, 3-[5-(1,3-benzoxazol-2-yl)-4-chloro-2-fluorophenyl]-1-methyl-6-(trifluoromethyl)-2,4(1H,3H)-pyrimidinedione], the melting point falls from 183 °C to 178 °C.

Going from Cn1c(C(F)(F)F)cc(=O)n(-c2cc(OCc3ncon3)c(Cl)cc2F)c1=O [Compound No 117, 3-[4-chloro-2-fluoro-5-(1,2,4-oxadiazol-3-ylmethoxy)phenyl]-1-methyl-6-(trifluoromethyl)-2,4(1H,3H)-pyrimidinedione] to Cn1c(C(F)(F)F)cc(=O)n(-c2cc(-c3nc4ccccc4s3)c(Cl)cc2Cl)c1=O [Compound No 123, 3-[5-(1,3-benzothiazol-2-yl)-2,4-dichlorophenyl]-1-methyl-6-(trifluoromethyl)-2,4(1H,3H)-pyrimidinedione], the melting point rises from 122 °C to 195 °C.

Going from Cn1c(C(F)(F)F)cc(=O)n(-c2ccc(Cl)c(-c3nnn(C(C)(C)C)n3)c2)c1=O [Compound No 118, 3-[3-(2-tert-butyl-2H-tetrazol-5-yl)-4-chlorophenyl]-1-methyl-6-(trifluoromethyl)-2,4(1H,3H)-pyrimidinedione] to Cn1c(C(F)(F)F)cc(=O)n(-c2ccc(Cl)c(-c3nnn(CC(N)=O)n3)c2)c1=O [Compound No 126, 2-(5-{2-chloro-5-[1,2,3,6-tetrahydro-3-methyl-2,6-dioxo-4-(trifluoromethyl)pyrimidin-1-yl]phenyl}-2H-tetrazol-2-yl)acetamide], the melting point rises from 154 °C to 200 °C.

First: Cc1ccc2nc(-c3cc(-n4c(=O)cc(C(F)(F)F)n(C)c4=O)c(Cl)cc3Cl)oc2c1 [Compound No 124, 3-[2,4-dichloro-5-(6-methyl-1,3-benzoxazol-2-yl)phenyl]-1-methyl-6-(trifluoromethyl) 2,4(1H,3H)-pyrimidinedione]
Second: CN(C)C(=O)Cn1nnc(-c2cc(-n3c(=O)cc(C(F)(F)F)n(C)c3=O)ccc2Cl)n1 [Compound No 125, 2-(5-{2-chloro-5-[1,2,3,6-tetrahydro-3-methyl-2,6-dioxo-4-(trifluoromethyl)pyrimidin-1-yl]phenyl}-2H-tetrazol-2-yl)-N,N-dimethylacetamide]
The melting point of the first is lower: 200 °C for the first, 208 °C for the second.
